Assay results reported in the supplement of paper PMC10307832.

Key:
Assay in all cases: relative viability (nuclei count vs DMSO), 5 days (fraction); higher = more cells survive
COR-L23 = tested on: COR-L23
Procedure, shortened: (§1)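 A single step with final 0.05% Triton X-100, 1% formaldehyde and 1 ug/ml Hoechst fixed the cells and stained nuclei 5 days after treatment. Lung cancer cell lines in 1536-well plates had been treated by pin tool the day after seeding with one drug alone or a fixed anchor-drug dose plus five library-drug doses (not always all listed) in √10 steps, and nuclei were counted on 4× images. Relative viability is the ratio of nuclei in treated wells to nuclei in vehicle wells, taken as the median of duplicate plates.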

SK-MES-1 = tested on: SK-MES-1
Procedure, shortened: as §1

Calu-6 = tested on: Calu-6
Procedure, shortened: as §1

NCI-H1437 = tested on: NCI-H1437
Procedure, shortened: as §1

SW 1573 = tested on: SW 1573
Procedure, shortened: as §1

NCI-H1299 = tested on: NCI-H1299
Procedure, shortened: as §1

ABC-1 = tested on: ABC-1
Procedure, shortened: as §1

A549 = tested on: A549
Procedure, shortened: as §1

EBC-1 = tested on: EBC-1
Procedure, shortened: as §1

NCI-H1651 = tested on: NCI-H1651
Procedure, shortened: as §1

IA-LM = tested on: IA-LM
Procedure, shortened: as §1

ChaGo-K-1 = tested on: ChaGo-K-1
Procedure, shortened: as §1

NCI-H1703 = tested on: NCI-H1703
Procedure, shortened: as §1

CCN(CC)CCCCNc1ncc2cc(-c3cc(OC)cc(OC)c3)c(NC(=O)NC(C)(C)C)nc2n1 + CS(=O)(=O)N1CCN(Cc2cc3nc(-c4cccc5[nH]ncc45)nc(N4CCOCC4)c3s2)CC1 [Pictilisib] (partner 1 µM)
relative viability (COR-L23; first compound 0.01 µM): 0.781 | relative viability (COR-L23; first compound 0.03162 µM): 0.955 | relative viability (COR-L23; first compound 0.1 µM): 0.824 | relative viability (COR-L23; first compound 0.3162 µM): 0.809 | relative viability (COR-L23; first compound 1 µM): 0.8 | relative viability (SK-MES-1; first compound 0.01 µM): 0.307 | relative viability (SK-MES-1; first compound 0.03162 µM): 0.334 | relative viability (SK-MES-1; first compound 0.1 µM): 0.406 | relative viability (SK-MES-1; first compound 0.3162 µM): 0.425 | relative viability (SK-MES-1; first compound 1 µM): 0.348 | relative viability (Calu-6; first compound 0.01 µM): 1.01 | relative viability (Calu-6; first compound 0.03162 µM): 0.994 | relative viability (Calu-6; first compound 0.1 µM): 1.12 | relative viability (Calu-6; first compound 0.3162 µM): 1.09 | relative viability (Calu-6; first compound 1 µM): 0.87 | relative viability (NCI-H1437; first compound 0.01 µM): 0.544 | relative viability (NCI-H1437; first compound 0.03162 µM): 0.482 | relative viability (NCI-H1437; first compound 0.1 µM): 0.424 | relative viability (NCI-H1437; first compound 0.3162 µM): 0.395 | relative viability (NCI-H1437; first compound 1 µM): 0.392 | relative viability (SW 1573; first compound 0.01 µM): 0.528 | relative viability (SW 1573; first compound 0.03162 µM): 0.48 | relative viability (SW 1573; first compound 0.1 µM): 0.615 | relative viability (SW 1573; first compound 0.3162 µM): 0.66 | relative viability (SW 1573; first compound 1 µM): 0.507 | relative viability (NCI-H1299; first compound 0.01 µM): 0.883 | relative viability (NCI-H1299; first compound 0.03162 µM): 0.845 | relative viability (NCI-H1299; first compound 0.1 µM): 0.851 | relative viability (NCI-H1299; first compound 0.3162 µM): 0.96 | relative viability (NCI-H1299; first compound 1 µM): 0.775 | relative viability (ABC-1; first compound 0.01 µM): 0.686 | relative viability (ABC-1; first compound 0.03162 µM): 0.66 | relative viability (ABC-1; first compound 0.1 µM): 0.736 | relative viability (ABC-1; first compound 0.3162 µM): 0.818 | relative viability (ABC-1; first compound 1 µM): 0.671 | relative viability (A549; first compound 0.01 µM): 0.52 | relative viability (A549; first compound 0.03162 µM): 0.543 | relative viability (A549; first compound 0.1 µM): 0.562 | relative viability (A549; first compound 0.3162 µM): 0.621 | relative viability (A549; first compound 1 µM): 0.41 | relative viability (EBC-1; first compound 0.01 µM): 0.369 | relative viability (EBC-1; first compound 0.03162 µM): 0.32 | relative viability (EBC-1; first compound 0.1 µM): 0.342 | relative viability (EBC-1; first compound 0.3162 µM): 0.37 | relative viability (EBC-1; first compound 1 µM): 0.293 | relative viability (NCI-H1651; first compound 0.01 µM): 0.693 | relative viability (NCI-H1651; first compound 0.03162 µM): 0.706 | relative viability (NCI-H1651; first compound 0.1 µM): 0.624 | relative viability (NCI-H1651; first compound 0.3162 µM): 0.466 | relative viability (NCI-H1651; first compound 1 µM): 0.275 | relative viability (IA-LM; first compound 0.01 µM): 0.329 | relative viability (IA-LM; first compound 0.03162 µM): 0.329 | relative viability (IA-LM; first compound 0.1 µM): 0.342 | relative viability (IA-LM; first compound 0.3162 µM): 0.333 | relative viability (IA-LM; first compound 1 µM): 0.265 | relative viability (ChaGo-K-1; first compound 0.01 µM): 0.551 | relative viability (ChaGo-K-1; first compound 0.03162 µM): 0.559 | relative viability (ChaGo-K-1; first compound 0.1 µM): 0.95 | relative viability (ChaGo-K-1; first compound 0.3162 µM): 0.98 | relative viability (ChaGo-K-1; first compound 1 µM): 0.437 | relative viability (NCI-H1703; first compound 0.01 µM): 0.233 | relative viability (NCI-H1703; first compound 0.03162 µM): 0.222 | relative viability (NCI-H1703; first compound 0.1 µM): 0.244 | relative viability (NCI-H1703; first compound 0.3162 µM): 0.213 | relative viability (NCI-H1703; first compound 1 µM): 0.252

COc1nc(C)cnc1NS(=O)(=O)c1cccnc1-c1ccc(-c2nnco2)cc1 [Zibotentan] + CS(=O)(=O)N1CCN(Cc2cc3nc(-c4cccc5[nH]ncc45)nc(N4CCOCC4)c3s2)CC1 [Pictilisib] (partner 1 µM)
relative viability (COR-L23; first compound 0.08 µM): 0.728 | relative viability (COR-L23; first compound 0.253 µM): 0.662 | relative viability (COR-L23; first compound 0.8 µM): 0.757 | relative viability (COR-L23; first compound 2.53 µM): 0.921 | relative viability (SK-MES-1; first compound 0.08 µM): 0.344 | relative viability (SK-MES-1; first compound 0.253 µM): 0.356 | relative viability (SK-MES-1; first compound 0.8 µM): 0.388 | relative viability (SK-MES-1; first compound 2.53 µM): 0.428 | relative viability (Calu-6; first compound 0.08 µM): 0.868 | relative viability (Calu-6; first compound 0.253 µM): 0.83 | relative viability (Calu-6; first compound 0.8 µM): 0.881 | relative viability (Calu-6; first compound 2.53 µM): 1.03 | relative viability (NCI-H1437; first compound 0.08 µM): 0.462 | relative viability (NCI-H1437; first compound 0.253 µM): 0.334 | relative viability (NCI-H1437; first compound 0.8 µM): 0.366 | relative viability (NCI-H1437; first compound 2.53 µM): 0.582 | relative viability (SW 1573; first compound 0.08 µM): 0.53 | relative viability (SW 1573; first compound 0.253 µM): 0.533 | relative viability (SW 1573; first compound 0.8 µM): 0.557 | relative viability (SW 1573; first compound 2.53 µM): 0.478 | relative viability (NCI-H1299; first compound 0.08 µM): 0.911 | relative viability (NCI-H1299; first compound 0.253 µM): 0.777 | relative viability (NCI-H1299; first compound 0.8 µM): 0.773 | relative viability (NCI-H1299; first compound 2.53 µM): 0.661 | relative viability (ABC-1; first compound 0.08 µM): 0.686 | relative viability (ABC-1; first compound 0.253 µM): 0.623 | relative viability (ABC-1; first compound 0.8 µM): 0.772 | relative viability (ABC-1; first compound 2.53 µM): 0.646 | relative viability (A549; first compound 0.08 µM): 0.478 | relative viability (A549; first compound 0.253 µM): 0.388 | relative viability (A549; first compound 0.8 µM): 0.57 | relative viability (A549; first compound 2.53 µM): 0.519 | relative viability (EBC-1; first compound 0.08 µM): 0.369 | relative viability (EBC-1; first compound 0.253 µM): 0.435 | relative viability (EBC-1; first compound 0.8 µM): 0.486 | relative viability (EBC-1; first compound 2.53 µM): 0.389 | relative viability (NCI-H1651; first compound 0.08 µM): 0.742 | relative viability (NCI-H1651; first compound 0.253 µM): 0.427 | relative viability (NCI-H1651; first compound 0.8 µM): 0.705 | relative viability (NCI-H1651; first compound 2.53 µM): 0.602 | relative viability (IA-LM; first compound 0.253 µM): 0.312 | relative viability (IA-LM; first compound 0.8 µM): 0.328 | relative viability (IA-LM; first compound 2.53 µM): 0.301 | relative viability (ChaGo-K-1; first compound 0.08 µM): 0.653 | relative viability (ChaGo-K-1; first compound 0.8 µM): 0.426 | relative viability (ChaGo-K-1; first compound 2.53 µM): 0.691 | relative viability (NCI-H1703; first compound 0.08 µM): 0.232 | relative viability (NCI-H1703; first compound 0.253 µM): 0.272 | relative viability (NCI-H1703; first compound 0.8 µM): 0.26 | relative viability (NCI-H1703; first compound 2.53 µM): 0.252
